Key:
[1] = test system: urethane-anesthetized rats; assay: Hypoglossal nerve activity and hLTF under spontaneous REM sleep with episodic airway occlusion; assay type: in vivo, rat
Experimental: (§1) Recurrent obstructive apneas during spontaneous breathing in urethane-anesthetized rats were simulated by applying 10 or 12 episodes of airway occlusion at one episode per min.
(§2) All values are expressed as mean±SE.
Experiments were performed on 5 adult male rats (body weight 270-550 g) under urethane anesthesia, pancuronium paralysis and artificial ventilation. Unlike other anesthetics, urethane anesthesia retains the sleep-like alternations in brain state and in breathing pattern and chemosensitivity similar to those seen in natural sleep^58-59 (including state-dependent modulations of GG and abdominal respiratory-related activities^40), while also circumventing the highly fragmented natural sleep pattern in rodents^40. As shown in FIGS. 12A-12B, during periods of REM-like sleep (as indicated by increased hippocampal activity) hypoglossal nerve discharge was markedly depressed (by 44.8±9.1%, P<0.01). […] In addition, episodic end-expiratory airway occlusion (lasting 15 seconds each, 1 episode per minute; FIG. 12A, arrows) caused marked time-dependent increases in the amplitude of hypoglossal nerve discharge during each airway occlusion episode.

[2] = test system: urethane-anesthetized rats; assay: Hypoglossal nerve activity and hLTF under carbachol (cholinergic)-induced REM sleep-like state with episodic airway occlusion; assay type: in vivo, rat
Excerpt: The EMGs were amplified (CyberAmp 380, Axon Instruments, Union City), integrated (time constant 0.1 s, MA821 RSP Moving Averager, CWE) and sampled at 10 KHz into a Dell PC with LabView software (National Instruments, Austin, Tex.).
A REM sleep-like state in urethane-anesthetized rats was induced by microinjection of the cholinergic agonist carbachol at unilateral dorsomedial pons^1,14 and was detected by the decrease of hypoglossal/GG EMG activity and the appearance of hippocampal theta discharge. The latter was recorded by using a parallel bipolar wire electrode inserted into the hippocampal CA1 region at the following stereotaxic coordinates: 3.7 mm caudal from Bregma, 2.2 mm lateral from midline, and depth of 2.4 mm from brain surface.
as §1, §2

[3] = test system: urethane-anesthetized spontaneously breathing rats
Experimental: All experimental protocols were reviewed and approved by the responsible Committee on Animal Care in accordance with published guidelines. Experiments were performed on 45 male adult Sprague-Dawley rats (300-400 g, Charles River Laboratories, Wilmington, Mass.) under urethane anesthesia (initial dose 1.5 g/kg, i.p.; supplemental dose 1/10 of initial dose, i.p. or i.v. when necessary). The femoral vein and artery were cannulated for intravenous infusion and blood pressure monitoring, respectively. Rectal temperature was maintained at 36.5-37.5° C. with a thermostatic heating pad.
After sub-laryngeal tracheal cannulation with a Y-shaped tracheal cannula, two isolated silver wires (O.D. 0.127 mm) were implanted into the genioglossus and diaphragm for EMG recording. The wire tips were exposed for 1 mm and separated by approximately 5 mm once inserted into the muscle. In some rats, the medial branch of the hypoglossal nerve (which innervates the GG and other tongue protrusion muscles) and phrenic nerve (which innervates the diaphragm) were isolated and severed. After the rat was mounted onto the stereotaxic frame, the central end of the nerve was exposed from the back of the neck (dorsal approach) and mounted onto parallel bipolar wire electrodes for recording. These rats were artificially ventilated with oxygen-enriched (40% O2) medical air and paralyzed with pancuronium bromide.
The EMGs were amplified (CyberAmp 380, Axon Instruments, Union City), integrated (time constant 0.1 s, MA821 RSP Moving Averager, CWE) and sampled at 10 KHz into a Dell PC with LabView software (National Instruments, Austin, Tex.). The recordings were stabilized for at least 1 hour before any data collection and experimental manipulations were performed.
For brain microinjections, an occipital craniostomy was performed to expose the brain surface. A glass micropipette (tip O.D. 10-20 μm) filled with chemical solution was inserted to the target structure according to its stereotaxic coordinates. Injections (25-50 nl per injection) were performed by applying pressure pulses to the micropipette and confirmed by the movement of the intrapipette solution meniscus. All chemicals were purchased from Sigma-Aldrich (Sigma, St. Louis, Mo.) and dissolved in ACSF at concentration of 10 mM. Stereotaxic coordinates of the A7 region: 2.3-2.6 mm from midline, 0-0.5 mm rostral from interaural level, 8.0-8.5 mm from lambda surface; A5 region: 0-0.5 mm caudal from interaural level, 2.2-2.7 mm from midline, 9.5-10 mm from lambda surface; dorsomedial pons: 1-1.5 mm from midline, 0.2-0.7 mm rostral from interaural level, 7.5-8.5 mm from lambda surface.
Recurrent obstructive apneas during spontaneous breathing in urethane-anesthetized rats were simulated by applying 10 or 12 episodes of airway occlusion at one episode per min. Each episode of airway occlusion started from the end of an expiration (in spontaneous breathing rats as described in Tadjalli et al., J Neurosci 30, 16886-16895 (2010)^5) or lung deflation (in ventilated rats) and lasted 10-12 sec. […]
The amplitudes of the integrated genioglossus EMG (or hypoglossal nerve discharge) and integrated diaphragm EMG (or phrenic nerve discharge) recordings in each respiratory cycle were measured and normalized to the control baseline values. All values are expressed as mean±SE. […]

[4] = test system: healthy subjects; details: cited from earlier work
[5] = test system: TH-cre transgenic Sprague-Dawley rats; assay: Episodic optogenetic stimulation of A7 neurons, HM activity and hLTF; details: 0.5 mg/kg i.v.
[6] = clinically recommended dose range; cited from earlier work
[7] = test system: urethane-anesthetized rats; assay: Hypoglossal amplitude and obstructive apnea-induced hLTF after yohimbine, focal at bilateral A7 and A5 regions or intravenous (no REM induction); assay type: in vivo, rat
Excerpt: Recurrent obstructive apneas during spontaneous breathing in urethane-anesthetized rats were simulated by applying 10 or 12 episodes of airway occlusion at one episode per min. […] All values are expressed as mean±SE.

[8] = injection at bilateral A7 region
[9] = intravenous 0.5 mg/kg, n=5, vs control n=12

In the case of `CC1c2ccccc2CN1CC1=NCCN1` (stereo not shown) [BRL44408, 2-[2H-(1-Methyl-1,3-dihydroisoindole)methyl]-4,5-dihydroimidazole], the “hypoglossal discharge (baseline) during spontaneous REM-like sleep” value ([1]; 0.2 mg/kg i.v., 5 rats) is reported as “effectively restored the hypoglossal discharge to normal baseline level” and the “hypoglossal activity before, during or after episodic airway occlusion” value ([1]; 0.2 mg/kg i.v., throughout spontaneous REM sleep) is reported as “at or above normal baseline level”.

For `C[N+](C)(C)CCOC(N)=O` [carbachol], the “respiratory-related hypoglossal activity, decrease on transition to REM-like sleep” value ([2]; focal carbachol injection at pontine dorsomedial reticular formation, vagi-intact rats) was about 39%.

In the case of `Clc1cccc(Cl)c1N=C1NCCN1` [clonidine], the “tonic component of GG activity recruited during airway obstruction” value ([3]; application at bilateral A7 or A5 region) is reported as “strongly suppressed”, the baseline genioglossus activity ([3]; injection at bilateral A5 region, n=6) is reported as “not significantly reduced” and the “facilitation of hypoglossal activity during airway occlusion” value [3, 8] is reported as “markedly attenuated”. The hypoglossal long-term facilitation [3, 8] was “totally abolished” and the “integrated genioglossus EMG amplitude, reduction from pre-injection baseline” value ([3]; injection at bilateral A7 region (~50 nl at 5 mM per site)) was about 12%.

In the case of `CNCCCN1c2ccccc2CCc2ccccc21` [desipramine], the “tonic component of GG activity” value ([4]; healthy subjects, non-REM sleep) is listed as “increased the tonic component of GG activity”, the “inspiratory-phasic component of GG activity” value ([4]; healthy subjects) is listed as “failed to increase the inspiratory-phasic component of GG activity” and the “effect on REM sleep” value ([4]; in vivo) is listed as “inhibit REM sleep”.

For `COc1cc2nc(N3CCN(C(=O)c4ccco4)CC3)nc(N)c2cc1OC` [prazosin], the HM activity [5] was “decreased” and the “hLTF after episodic optogenetic stimulation of A7 neurons” value [5] was “no longer resulted in hLTF”.

For `COC(=O)[C@@H]1[C@H]2C[C@H]3c4[nH]c5ccccc5c4CCN3C[C@@H]2CC[C@@H]1O` [yohimbine, Yohimbine], the “dose that effectively rescued first- and second-line motor defenses against OSA under REM sleep” value ([1]; i.v., rats, REM sleep) was over 0.25 mg/kg, the “baseline HM activity” value ([2]; systemic yohimbine 0.5-1.0 mg/kg i.v., cholinergic-induced REM sleep, n=7, P<0.01) was “rise of baseline HM activity above the control level” and the “obstructive apnea-induced hLTF” value ([2]; systemic yohimbine 0.5-1.0 mg/kg i.v., cholinergic-induced REM sleep, up to 20 min after episodic obstructive apnea) was “potently reversed the blunting of obstructive apnea-induced hLTF”. For the same compound, the “effect on REM sleep” value [6] was “does not disrupt REM sleep”, the weight gain [6] was “does not disrupt REM sleep or cause weight gain” and the “baseline HM activity” value ([7]; focal injection at bilateral A7 and A5 regions (50 nl at 2.5 mM per site), n=5, P<0.01) was “significant increase of baseline HM activity”. For the same compound, the “hLTF during obstructive apnea episodes and up to 20 min afterwards” value ([7]; focal injection at bilateral A7 and A5 regions, P<0.05) was “enhancement of hLTF”, the “baseline hypoglossal amplitude before episodic airway occlusion” value [7, 9] was “augmented baseline hypoglossal amplitude” and the “hypoglossal amplitude during first and last airway occlusion episodes and 5 and 20 min after” value [7, 9] was “facilitated hypoglossal amplitude”.

— patent US20180235934A1, “NORADRENERGIC DRUG TREATMENT OF OBSTRUCTIVE SLEEP APNEA” (Massachusetts Institute of Technology, priority 2015, published 2018)
